Results from US7144879B2, “Substituted metal-phthalocyanines, their preparation and the use thereof” (L. Molteni & C. Dei Fratelli, priority 2000, dated 2006).

How the values were obtained:
Type in all cases: cell-based
3T3 cells = experiment: Survival of 3T3 cells (model of mammalian cells) after photodynamic treatment; settings: red light 650-750 nm, 50 mW/cm^2, PBS +5% DMSO, 5 min pre-incubation
Experimental: (§1) The irradiation is carried out with red light (650-750 nm), 50 mW/cm^2.

[1] = test system: Escherichia coli (04; Gram-negative); experiment: Photoinactivation of E. coli, survival after photodynamic treatment; settings: red light 650-750 nm, 50 mW/cm^2, PBS +5% DMSO, 5 min pre-incubation
Excerpt: (§2) The compounds synthesized have been assayed for their antifungal and antibacterial (Gram-positive e Gram-negative) activity. For the experiments the following micro-organisms were used: Candida albicans (ATCC10231; yeast), Staphylococcus aureus (ATCC 6538P, MRSA; Gram-positive), Escherichia coli (04; Gram-negative). All the micro-organisms were used in the experiments in a stationary state of growth. An example of experimental protocol used to assess the photoinactivation of micro-organisms is described as follows.
(§3) Cells in a stationary state of growth have been washed in physiological buffered saline solution (PBS) and diluted in order to obtain a cell suspension in the range 10^6÷10^9 cells/ml in PBS or appropriate medium.
(§4) Cell suspensions have then been treated with scalar aliquots of the photosensitising agent to be tested in the range 30÷0.01 μM, eventually as a photosensitizer conjugate. […] In order to determine the percentage of cell population after photoinactivation for each photosensitizer concentration, serially diluted samples resulting from the irradiation have been plated on Sabouraud Dextrose Agar (C. Albicans), on Tryptic Soy Agar (S. aureus), or on other suitable culture media and the data were compared with dark controls.
as §1

[2] = test system: Candida albicans (ATCC10231; yeast); experiment: Photoinactivation of C. albicans, survival after photodynamic treatment; settings: 1 μM, red light 650-750 nm, 50 mW/cm^2, PBS +5% DMSO, 10 min pre-incubation
Excerpt: as §2, §3, §4, §1

[3] = test system: Staphylococcus aureus (ATCC 6538P, MRSA; Gram-positive); experiment: Photoinactivation of S. aureus (MRSA), survival after photodynamic treatment; settings: red light 650-750 nm, 50 mW/cm^2, PBS +5% DMSO, 5 min pre-incubation
Excerpt: as §2, §3, §4, §1

erythrocytes = experiment: Haemolytic properties, dark and light treatment; settings: for % Haemolysis (Light treatment) 30 J/cm^2 (50 mW/cm^2 × 10 min): light 30 J/cm^2 (50 mW/cm^2 × 10 min)

Compound | Survival (%) (3T3 cells; 1 μM, irradiation 1 min) | Survival (%) (3T3 cells; 1 μM, irradiation 5 min) | Survival (%) (3T3 cells; 10 μM, irradiation 1 min) | Survival (%) (3T3 cells; 10 μM, irradiation 5 min) | Survival (%) ([1]; 1 μM, irradiation 1 min) | Survival (%) ([1]; 1 μM, irradiation 5 min) | Survival (%) ([1]; 10 μM, irradiation 1 min) | Survival (%) ([1]; 10 μM, irradiation 5 min) | Survival (%) ([2]; irradiation 1 min) | Survival (%) ([2]; irradiation 5 min) | Survival (%) ([3]; 1 μM, irradiation 1 min) | Survival (%) ([3]; 1 μM, irradiation 5 min) | Survival (%) ([3]; 10 μM, irradiation 1 min) | Survival (%) ([3]; 10 μM, irradiation 5 min) | % Haemolysis (Dark treatment) (erythrocytes; concentration 0.5 μM) | % Haemolysis (Light treatment) 30 J/cm^2 (50 mW/cm^2 × 10 min) (erythrocytes; concentration 0.5 μM) | % Haemolysis (Dark treatment) (erythrocytes; concentration 1 μM) | % Haemolysis (Light treatment) 30 J/cm^2 (50 mW/cm^2 × 10 min) (erythrocytes; concentration 1 μM) | % Haemolysis (Dark treatment) (erythrocytes; concentration 5 μM) | % Haemolysis (Light treatment) 30 J/cm^2 (50 mW/cm^2 × 10 min) (erythrocytes; concentration 5 μM)
2[1,3-bis-(trimethylammonium)2-propyloxy]zinc(II) phtalocyanine diiodide [Compound 18] | 100% | 97% | 100% | 94% | 100% | 100% | 100% | 2.34% | 0.0001% | 0.0001% | 0.0002% | 0.0001% | 0.0001% | 0.0001% |  |  |  |  |  | 
CN1CCC(Oc2ccc3c4[n]5c(c3c2)=NC2=NC(=Nc3c6ccccc6c([n]3[Zn]5)N=C3N=C(N=4)c4ccccc43)c3ccccc32)CC1 [Compound 4] |  |  |  |  |  |  |  |  |  |  |  |  |  |  | 4.7% | 0.9% | 1.5% | 1.2% | 1.5% | 1.5%
